Source: US10626095B2, “Cyanotriazole compounds” (OTSUKA PHARMACEUTICAL CO., LTD., priority 2013, dated 2020)

Tests used:
[1] = tested on: Zucker Diabetic Fatty (ZDF) rat; assay: Meal load test in type 2 diabetic model rats (postprandial blood glucose); type: in vivo; parameters: unit not given here; conditions: ZDF rats fasted overnight, oral 10 mg/kg in 5% Arabia gum, blood glucose one hour after meal loading (50 kcal/kg)
Summary of the method: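 Overnight-fasted (17 h) ZDF rats, n=6 per group, given compound at 10 or 30 mg/kg orally in 5% Arabia gum 2 h before or just before a 50 kcal/kg AIN-93G meal load. Blood glucose at 1 h; effect expressed as BG1h difference from vehicle.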

[2] = tested on: NaCT-CHO (CHO cells stably expressing human NaCT); assay: Assay of the citric acid cycle activation ([1,5-14C]-citric acid, diffusion of [14C]-CO2); type: cell-based; conditions: 1 hour incubation at 37° C. with [1,5-14C]-citric acid
Summary of the method: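 NaCT-CHO cells (pME-CHO empty-vector cells for non-specific counts) were incubated 1 h at 37 °C in Na+-containing HEPES-Tris pH 7.4 with compound plus an equal volume of 0.4 mM [1,5-14C]-citric acid solution. Residual cell radioactivity was counted, [14C]-CO2 diffusion was taken as (Total−R)/(Total−NS)×100%, and EC50 was derived by regression.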

With `N#Cc1[nH]nnc1-c1cc(Cl)cc(-c2cc(C(F)(F)F)cc(C(F)(F)F)c2)c1` [Example 275, 5-(5-chloro-3′,5′-bis-trifluoromethyl-biphenyl-3-yl)-3H-[1,2,3]triazole-4-carbonitrile] the “BG1h (BG1h difference between compound group and vehicle group)” value [1] was −83.3 and the EC50 [2] was 1040 nM.

With `N#Cc1[nH]nnc1-c1cc(Cl)cc(-c2ccc(OC(F)(F)F)c(F)c2)c1` [Example 276, 5-(5-chloro-3′-fluoro-4′-trifluoromethoxy-biphenyl-3-yl)-3H-[1,2,3]triazole-4-carbonitrile] the “BG1h (BG1h difference between compound group and vehicle group)” value [1] was −71.4 and the EC50 [2] was 850 nM.

For `N#Cc1[nH]nnc1-c1cc(OC(F)(F)F)cc(-c2ccc(OC(F)(F)F)c(F)c2)c1` [Example 298, 5-(3′-fluoro-5,4′-bis-trifluoromethoxy-biphenyl-3-yl)-3H-[1,2,3]triazole-4-carbonitrile], the “BG1h (BG1h difference between compound group and vehicle group)” value [1] was −62.8 and the EC50 [2] was 740 nM.

`N#Cc1[nH]nnc1-c1cccc(OCc2ccc(C(F)(F)F)c(C(F)(F)F)c2)c1` [Example 423, 5-[3-(3,4-bis-trifluoromethyl-benzyloxy)-phenyl]-3H-[1,2,3]triazole-4-carbonitrile] was tested, and the “BG1h (BG1h difference between compound group and vehicle group)” value [1] was −87.6 and the EC50 [2] was 920 nM.

For `N#Cc1[nH]nnc1-c1cc(OCc2cc(C(F)(F)F)ccc2C(F)(F)F)cc(OC(F)(F)F)c1` [Example 504, 5-[3-(2,5-bis-trifluoromethyl-benzyloxy)-5-trifluoromethoxy-phenyl]-3H-[1,2,3]triazole-4-carbonitrile], the “BG1h (BG1h difference between compound group and vehicle group)” value [1] was −69.1 and the EC50 [2] was 1470 nM.

`N#Cc1[nH]nnc1-c1cc(Cl)cc(/C=C/c2cc(C(F)(F)F)cc(C(F)(F)F)c2)c1` [Example 610, 5-{3-[(E)-2-(3,5-bis-trifluoromethyl-phenyl)-vinyl]-5-chloro-phenyl}-3H-[1,2,3]triazole-4-carbonitrile] was tested, and the “BG1h (BG1h difference between compound group and vehicle group)” value [1] was −86.8 and the EC50 [2] was 1740 nM.

With `N#Cc1[nH]nnc1-c1cccc(/C=C/c2cccc(C(F)(F)F)c2)c1` [Example 613, 5-{3-[(E)-2-(3-trifluoromethyl-phenyl)-vinyl]-phenyl}-3H-[1,2,3]triazole-4-carbonitrile] the “BG1h (BG1h difference between compound group and vehicle group)” value [1] was −138.8 and the EC50 [2] was 430 nM.

For `N#Cc1[nH]nnc1-c1cccc(/C=C/c2ccc(C(F)(F)F)cc2)c1` [Example 617, 5-{3-[(E)-2-(4-trifluoromethyl-phenyl)-vinyl]-phenyl}-3H-[1,2,3]triazole-4-carbonitrile], the “BG1h (BG1h difference between compound group and vehicle group)” value [1] was −113.3 and the EC50 [2] was 480 nM.

For `N#Cc1[nH]nnc1-c1cc(/C=C/c2cccc(C(F)(F)F)c2)cc(C(F)(F)F)c1` [Example 620, 5-{3-trifluoromethyl-5-[(E)-2-(3-trifluoromethyl-phenyl)-vinyl]-phenyl}-3H-[1,2,3]triazole-4-carbonitrile], the “BG1h (BG1h difference between compound group and vehicle group)” value [1] was −159.7 and the EC50 [2] was 1450 nM.

`N#Cc1[nH]nnc1-c1cc(Cl)cc(/C=C/c2ccc(F)cc2)c1` [Example 623, 5-{3-chloro-5-[(E)-2-(4-fluoro-phenyl)-vinyl]-phenyl}-3H-[1,2,3]triazole-4-carbonitrile] was tested, and the “BG1h (BG1h difference between compound group and vehicle group)” value [1] was −111.2 and the EC50 [2] was 690 nM.

In the case of `Cc1cc(/C=C/c2ccc(F)cc2)cc(-c2nn[nH]c2C#N)c1` [Example 627, 5-{3-[(E)-2-(4-fluoro-phenyl)-vinyl]-5-methyl-phenyl}-3H-[1,2,3]triazole-4-carbonitrile], the “BG1h (BG1h difference between compound group and vehicle group)” value [1] is reported as −85.2 and the EC50 [2] is reported as 740 nM.

With `N#Cc1[nH]nnc1-c1cc(/C=C/c2ccc(F)cc2)cc(OC(F)(F)F)c1` [Example 639, 5-{3-[(E)-2-(4-fluoro-phenyl)-vinyl]-5-trifluoromethoxy-phenyl}-3H-[1,2,3]triazole-4-carbonitrile] the “BG1h (BG1h difference between compound group and vehicle group)” value [1] was −58.5 and the EC50 [2] was 1210 nM.

For `N#Cc1[nH]nnc1-c1cccc(/C=C/c2ccc(F)cc2)c1` [Example 640, 5-{3-[(E)-2-(4-fluoro-phenyl)-vinyl]-phenyl}-3H-[1,2,3]triazole-4-carbonitrile], the “BG1h (BG1h difference between compound group and vehicle group)” value [1] was −62.0 and the EC50 [2] was 670 nM.

With `CCOc1cc(/C=C/c2cccc(C(F)(F)F)c2)cc(-c2nn[nH]c2C#N)c1` [Example 644, 5-{3-ethoxy-5-[(E)-2-(3-trifluoromethyl-phenyl)-vinyl]-phenyl}-3H-[1,2,3]triazole-4-carbonitrile] the “BG1h (BG1h difference between compound group and vehicle group)” value [1] was −131.0 and the EC50 [2] was 2350 nM.

With `N#Cc1[nH]nnc1-c1cc(/C=C/c2ccc(F)cc2F)cc(C(F)(F)F)c1` [Example 645, 5-{3-[(E)-2-(2,4-difluoro-phenyl)-vinyl]-5-trifluoromethyl-phenyl}-3H-[1,2,3]triazole-4-carbonitrile] the “BG1h (BG1h difference between compound group and vehicle group)” value [1] was −121.6 and the EC50 [2] was 1090 nM.

For `N#Cc1[nH]nnc1-c1cccc(/C=C/c2ccc(F)cc2F)c1` [Example 646, 5-{3-[(E)-2-(2,4-difluoro-phenyl)-vinyl]-phenyl}-3H-[1,2,3]triazole-4-carbonitrile], the “BG1h (BG1h difference between compound group and vehicle group)” value [1] was −89.3 and the EC50 [2] was 620 nM.

For `N#Cc1[nH]nnc1-c1cc(Cl)cc(/C=C/c2cccc(OC(F)(F)F)c2)c1` [Example 649, 5-{3-chloro-5-[(E)-2-(3-trifluoromethoxy-phenyl)-vinyl]-phenyl}-3H-[1,2,3]triazole-4-carbonitrile], the “BG1h (BG1h difference between compound group and vehicle group)” value [1] was −99.4 and the EC50 [2] was 2470 nM.

For `COc1cc(/C=C/c2cccc(C(F)(F)F)c2)cc(-c2nn[nH]c2C#N)c1` [Example 657, 5-{3-methoxy-5-[(E)-2-(3-trifluoromethyl-phenyl)-vinyl]-phenyl}-3H-[1,2,3]triazole-4-carbonitrile], the “BG1h (BG1h difference between compound group and vehicle group)” value [1] was −120.5 and the EC50 [2] was 1160 nM.

With `N#Cc1[nH]nnc1-c1cccc(/C=C/c2cc(F)cc(C(F)(F)F)c2)c1` [Example 659, 5-{3-[(E)-2-(3-fluoro-5-trifluoromethyl-phenyl)-vinyl]-phenyl}-3H-[1,2,3]triazole-4-carbonitrile] the “BG1h (BG1h difference between compound group and vehicle group)” value [1] was −161.2 and the EC50 [2] was 810 nM.

In the case of `N#Cc1[nH]nnc1-c1cccc(/C=C/c2ccc(F)c(C(F)(F)F)c2)c1` [Example 663, 5-{3-[(E)-2-(4-fluoro-3-trifluoromethyl-phenyl)-vinyl]-phenyl}-3H-[1,2,3]triazole-4-carbonitrile], the “BG1h (BG1h difference between compound group and vehicle group)” value [1] is reported as −149.5 and the EC50 [2] is reported as 1250 nM.

For `N#Cc1[nH]nnc1-c1cccc(-c2cc(C(F)(F)F)ccn2)c1` [Example 790, 5-[3-(4-trifluoromethyl-pyridin-2-yl)-phenyl]-3H-[1,2,3]triazole-4-carbonitrile], the “BG1h (BG1h difference between compound group and vehicle group)” value [1] was −61.5 and the EC50 [2] was 980 nM.

With `Cc1cc(-c2ccc(C(F)(F)F)cn2)cc(-c2nn[nH]c2C#N)c1` [Example 807, 5-[3-methyl-5-(5-trifluoromethyl-pyridin-2-yl)-phenyl]-3H-[1,2,3]triazole-4-carbonitrile] the “BG1h (BG1h difference between compound group and vehicle group)” value [1] was −94.5 and the EC50 [2] was 1100 nM.

For `N#Cc1[nH]nnc1-c1cccc(-c2ccc3c(c2)OC(F)(F)O3)c1` [Example 931, 5-[3-(2,2-difluoro-benzo[1,3]dioxol-5-yl)-phenyl]-3H-[1,2,3]triazole-4-carbonitrile], the “BG1h (BG1h difference between compound group and vehicle group)” value [1] was −76.4 and the EC50 [2] was 690 nM.

For `N#Cc1[nH]nnc1-c1cc(OC(F)(F)F)cc(-c2ccc3c(c2)OC(F)(F)O3)c1` [Example 934, 5-[3-(2,2-difluoro-benzo[1,3]dioxol-5-yl)-5-trifluoromethoxy-phenyl]-3H-[1,2,3]triazole-4-carbonitrile], the “BG1h (BG1h difference between compound group and vehicle group)” value [1] was −87.2 and the EC50 [2] was 510 nM.

For `CCOc1cc(-c2nccc(C(F)(F)F)n2)cc(-c2nn[nH]c2C#N)c1` [Example 944, 5-[3-ethoxy-5-(4-trifluoromethyl-pyrimidin-2-yl)-phenyl]-38-[1,2,3]triazole-4-carbonitrile], the “BG1h (BG1h difference between compound group and vehicle group)” value [1] was −125.1 and the EC50 [2] was 1010 nM.

In the case of `N#Cc1[nH]nnc1-c1cccc(/C=C/c2cc3ccccc3s2)c1` [Example 1004, 5-[3-((E)-2-benzo[b]thiophen-2-yl-vinyl)-phenyl]-3H-[1,2,3]triazole-4-carbonitrile], the “BG1h (BG1h difference between compound group and vehicle group)” value [1] is reported as −89.8 and the EC50 [2] is reported as 1800 nM.

In the case of `N#Cc1[nH]nnc1-c1cccc(/C=C/c2ccc3c(c2)OC(F)(F)O3)c1` [Example 1017, 5-{3-[(E)-2-(2,2-difluoro-benzo[1,3]dioxol-5-yl)-vinyl]-phenyl}-3H-[1,2,3]triazole-4-carbonitrile], the “BG1h (BG1h difference between compound group and vehicle group)” value [1] is reported as −124.6 and the EC50 [2] is reported as 1000 nM.

`N#Cc1[nH]nnc1-c1cccc(/C=C/c2cccc(C(F)(F)F)n2)c1` [Example 1018, 5-{3-[(E)-2-(6-trifluoromethyl-pyridin-2-yl)-vinyl]-phenyl}-3H-[1,2,3]triazole-4-carbonitrile] was tested, and the “BG1h (BG1h difference between compound group and vehicle group)” value [1] was −59.2 and the EC50 [2] was 1170 nM.

For `CCc1sc(-c2ccc(Cl)cc2F)nc1-c1nn[nH]c1C#N` [Example 1248, 5-[2-(4-chloro-2-fluoro-phenyl)-5-ethyl-thiazol-4-yl]-3H-[1,2,3]triazole-4-carbonitrile], the “BG1h (BG1h difference between compound group and vehicle group)” value [1] was −82.2 and the EC50 [2] was 3050 nM.

In the case of `N#Cc1[nH]nnc1-c1ccc(/C=C/c2ccc(F)cc2)o1` [Example 1505, 5-{5-[(E)-2-(4-fluoro-phenyl)-vinyl]-furan-2-yl}-3H-[1,2,3]triazole-4-carbonitrile], the “BG1h (BG1h difference between compound group and vehicle group)” value [1] is reported as −123.5 and the EC50 [2] is reported as 420 nM.
